# Data reported in PubChem BioAssay (NCI).
#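 Growth conditions: 96-well plates. Treatment: test compound, 48 hours, 5 concentrations. Analysis: linear interpolation between bracketing concentrations; unreached endpoints set to highest concentration. The concentration for 50% growth inhibition is given as GI50. TGI is the concentration that stops growth completely.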
# Tests used:
# Assay in all cases: NCI-60 cell line screen, 48 h
# TK-10 renal = test system: TK-10 renal
# SK-OV-3 ovarian = test system: SK-OV-3 ovarian
# OVCAR-3 ovarian = test system: OVCAR-3 ovarian
# HCT-116 colon = test system: HCT-116 colon
# COLO 205 colon = test system: COLO 205 colon
# A498 renal = test system: A498 renal
# NCI-H23 lung = test system: NCI-H23 lung
# OVCAR-5 ovarian = test system: OVCAR-5 ovarian
# UACC-257 melanoma = test system: UACC-257 melanoma
# HOP-92 NSCLC = test system: HOP-92 NSCLC
# LOX IMVI melanoma = test system: LOX IMVI melanoma
# SF-539 CNS = test system: SF-539 CNS
# SNB-75 CNS = test system: SNB-75 CNS
# UO-31 renal = test system: UO-31 renal
# CCRF-CEM leukemia = test system: CCRF-CEM leukemia
# NCI-H460 lung = test system: NCI-H460 lung
# SF-295 CNS = test system: SF-295 CNS
# SK-MEL-2 melanoma = test system: SK-MEL-2 melanoma
# BT-549 breast = test system: BT-549 breast
# SK-MEL-28 melanoma = test system: SK-MEL-28 melanoma
# T-47D breast = test system: T-47D breast
# M14 melanoma = test system: M14 melanoma
# HS 578T breast = test system: HS 578T breast
# ACHN renal = test system: ACHN renal
# PC-3 prostate = test system: PC-3 prostate
# SF-268 CNS = test system: SF-268 CNS
# UACC-62 melanoma = test system: UACC-62 melanoma
# RPMI-8226 leukemia = test system: RPMI-8226 leukemia
# HL-60(TB) leukemia = test system: HL-60(TB) leukemia
# SR leukemia = test system: SR leukemia
# IGROV1 ovarian = test system: IGROV1 ovarian
# HCT-15 colon = test system: HCT-15 colon
# HCC-2998 colon = test system: HCC-2998 colon
# KM12 colon = test system: KM12 colon
# MDA-MB-435 = test system: MDA-MB-435
# OVCAR-4 ovarian = test system: OVCAR-4 ovarian
# MOLT-4 leukemia = test system: MOLT-4 leukemia
# U251 CNS = test system: U251 CNS
# NCI/ADR-RES ovarian = test system: NCI/ADR-RES ovarian
# MDA-MB-231 breast = test system: MDA-MB-231 breast
# MCF7 breast = test system: MCF7 breast
# HT29 colon = test system: HT29 colon
# NCI-H522 lung = test system: NCI-H522 lung
# NCI-H226 lung = test system: NCI-H226 lung
# MALME-3M melanoma = test system: MALME-3M melanoma
# OVCAR-8 ovarian = test system: OVCAR-8 ovarian
# SN12C renal = test system: SN12C renal
# SNB-19 CNS = test system: SNB-19 CNS
# SK-MEL-5 melanoma = test system: SK-MEL-5 melanoma
# A549 NSCLC = test system: A549 NSCLC
# K-562 leukemia = test system: K-562 leukemia
# HOP-62 NSCLC = test system: HOP-62 NSCLC
# SW-620 colon = test system: SW-620 colon
# 786-0 renal = test system: 786-0 renal
# CAKI-1 renal = test system: CAKI-1 renal
# EKVX NSCLC = test system: EKVX NSCLC
smiles,measurement,setting,value
Cc1ccc(-c2nc3sc(C)cn3c2/C=C2\C(=O)Nc3ccc(Cl)cc32)cc1,GI50,TK-10 renal,9.28 µM
same,TGI,TK-10 renal,24.7 µM
same,GI50,SK-OV-3 ovarian,7.05 µM
same,TGI,SK-OV-3 ovarian,25.1 µM
same,GI50,OVCAR-3 ovarian,24.6 µM
same,TGI,OVCAR-3 ovarian,62.8 µM
same,GI50,HCT-116 colon,12.2 µM
same,TGI,HCT-116 colon,24.7 µM
same,GI50,COLO 205 colon,31 µM
same,TGI,COLO 205 colon,> 100 µM
same,GI50,A498 renal,16.3 µM
same,TGI,A498 renal,36 µM
same,GI50,NCI-H23 lung,12.4 µM
same,TGI,NCI-H23 lung,26 µM
same,GI50,OVCAR-5 ovarian,18.8 µM
same,TGI,OVCAR-5 ovarian,38.5 µM
same,GI50,UACC-257 melanoma,16.6 µM
same,TGI,UACC-257 melanoma,44.9 µM
same,GI50,HOP-92 NSCLC,7.66 µM
same,TGI,HOP-92 NSCLC,25.1 µM
same,GI50,LOX IMVI melanoma,13.8 µM
same,TGI,LOX IMVI melanoma,26.7 µM
same,GI50,SF-539 CNS,4.51 µM
same,TGI,SF-539 CNS,17.3 µM
same,GI50,SNB-75 CNS,3.1 µM
same,TGI,SNB-75 CNS,8.44 µM
same,GI50,UO-31 renal,28.1 µM
same,TGI,UO-31 renal,> 100 µM
same,GI50,CCRF-CEM leukemia,29.3 µM
same,TGI,CCRF-CEM leukemia,93.6 µM
same,GI50,NCI-H460 lung,15.7 µM
same,TGI,NCI-H460 lung,31.9 µM
same,GI50,SF-295 CNS,8.2 µM
same,TGI,SF-295 CNS,32.9 µM
same,GI50,SK-MEL-2 melanoma,12.1 µM
same,TGI,SK-MEL-2 melanoma,28.6 µM
same,GI50,BT-549 breast,15.3 µM
same,TGI,BT-549 breast,37.1 µM
same,GI50,SK-MEL-28 melanoma,18 µM
same,TGI,SK-MEL-28 melanoma,34.5 µM
same,GI50,T-47D breast,42.2 µM
same,TGI,T-47D breast,> 100 µM
same,GI50,M14 melanoma,15.5 µM
same,TGI,M14 melanoma,29.9 µM
same,GI50,HS 578T breast,8.02 µM
same,TGI,HS 578T breast,73.7 µM
same,GI50,ACHN renal,4.27 µM
same,TGI,ACHN renal,16 µM
same,GI50,PC-3 prostate,22.3 µM
same,TGI,PC-3 prostate,54.4 µM
same,GI50,SF-268 CNS,17.8 µM
same,TGI,SF-268 CNS,35.5 µM
same,GI50,UACC-62 melanoma,13.3 µM
same,TGI,UACC-62 melanoma,27.7 µM
same,GI50,RPMI-8226 leukemia,22.4 µM
same,TGI,RPMI-8226 leukemia,58.6 µM
same,GI50,HL-60(TB) leukemia,32.3 µM
same,TGI,HL-60(TB) leukemia,> 100 µM
same,GI50,SR leukemia,10.8 µM
same,TGI,SR leukemia,36.7 µM
same,GI50,IGROV1 ovarian,12.6 µM
same,TGI,IGROV1 ovarian,27.6 µM
same,GI50,HCT-15 colon,17.2 µM
same,TGI,HCT-15 colon,34.4 µM
same,GI50,HCC-2998 colon,15.1 µM
same,TGI,HCC-2998 colon,31.1 µM
same,GI50,KM12 colon,20.6 µM
same,TGI,KM12 colon,48.5 µM
same,GI50,MDA-MB-435,18 µM
same,TGI,MDA-MB-435,34.8 µM
same,GI50,OVCAR-4 ovarian,14.5 µM
same,TGI,OVCAR-4 ovarian,29.9 µM
same,GI50,MOLT-4 leukemia,26.2 µM
same,TGI,MOLT-4 leukemia,82.7 µM
same,GI50,U251 CNS,3.92 µM
same,TGI,U251 CNS,15.3 µM
same,GI50,NCI/ADR-RES ovarian,15.7 µM
same,TGI,NCI/ADR-RES ovarian,34.2 µM
same,GI50,MDA-MB-231 breast,4.35 µM
same,TGI,MDA-MB-231 breast,20.1 µM
same,GI50,MCF7 breast,7.66 µM
same,TGI,MCF7 breast,22.3 µM
same,GI50,HT29 colon,20.3 µM
same,TGI,HT29 colon,41.4 µM
same,GI50,NCI-H522 lung,15.5 µM
same,TGI,NCI-H522 lung,30.1 µM
same,GI50,NCI-H226 lung,22.9 µM
same,TGI,NCI-H226 lung,> 100 µM
same,GI50,MALME-3M melanoma,14.9 µM
same,TGI,MALME-3M melanoma,35.6 µM
same,GI50,OVCAR-8 ovarian,15.2 µM
same,TGI,OVCAR-8 ovarian,33.5 µM
same,GI50,SN12C renal,15 µM
same,TGI,SN12C renal,29.8 µM
same,GI50,SNB-19 CNS,10.6 µM
same,TGI,SNB-19 CNS,27.7 µM
same,GI50,SK-MEL-5 melanoma,15.5 µM
same,TGI,SK-MEL-5 melanoma,30.4 µM
same,GI50,A549 NSCLC,14.1 µM
same,TGI,A549 NSCLC,27.8 µM
same,GI50,K-562 leukemia,22.8 µM
same,TGI,K-562 leukemia,84.1 µM
same,GI50,HOP-62 NSCLC,7.21 µM
same,TGI,HOP-62 NSCLC,20.8 µM
same,GI50,SW-620 colon,19.1 µM
same,TGI,SW-620 colon,52.1 µM
same,GI50,786-0 renal,10.3 µM
same,TGI,786-0 renal,22 µM
same,GI50,CAKI-1 renal,17 µM
same,TGI,CAKI-1 renal,38.2 µM
same,GI50,EKVX NSCLC,16 µM
same,TGI,EKVX NSCLC,39.3 µM
